The supplement of paper PMC10307832

Key:
Assay in all cases: relative viability (nuclei count vs DMSO), 5 days (fraction); higher = more cells survive
H3255 = system: H3255
Procedure, shortened: (§1)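 Medians of duplicate plates are given as relative viability. That measure is the nuclei count in treated wells divided by the count in vehicle wells. Counts were taken on 4× images of lung cancer cell lines in 1536-well plates, 5 days after pin-tool dosing the day after seeding with one drug alone or a fixed anchor-drug dose plus five library-drug doses (not always all listed) in √10 steps.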

NCI-H1993 = system: NCI-H1993
Procedure, shortened: as §1

NCI-H1975 = system: NCI-H1975
Procedure, shortened: as §1

LU99A = system: LU99A
Procedure, shortened: as §1

NCI-H647 = system: NCI-H647
Procedure, shortened: as §1

NCI-H838 = system: NCI-H838
Procedure, shortened: as §1

LC-2-ad = system: LC-2-ad
Procedure, shortened: as §1

HCC-366 = system: HCC-366
Procedure, shortened: as §1

NCI-H1944 = system: NCI-H1944
Procedure, shortened: as §1

HCC-15 = system: HCC-15
Procedure, shortened: as §1

PC-3 [JPC-3] = system: PC-3 [JPC-3]
Procedure, shortened: as §1

SMILES: O=c1[nH]c2ccccc2n1C1CCN(CCCC(c2ccc(F)cc2)c2ccc(F)cc2)CC1 [Pimozide] + C[C@@H](Oc1cc(-c2cnn(C3CCNCC3)c2)cnc1N)c1c(Cl)ccc(F)c1Cl [Crizotinib] (partner 1 µM)
- relative viability (H3255; first compound 0.253 µM): 0.801
- relative viability (H3255; first compound 0.8 µM): 0.764
- relative viability (H3255; first compound 2.53 µM): 0.983
- relative viability (H3255; first compound 8 µM): 0.875
- relative viability (NCI-H1993; first compound 0.08 µM): 0.818
- relative viability (NCI-H1993; first compound 0.253 µM): 0.816
- relative viability (NCI-H1993; first compound 0.8 µM): 0.816
- relative viability (NCI-H1993; first compound 2.53 µM): 0.859
- relative viability (NCI-H1993; first compound 8 µM): 0.898
- relative viability (NCI-H1975; first compound 0.08 µM): 0.919
- relative viability (NCI-H1975; first compound 0.253 µM): 1.02
- relative viability (NCI-H1975; first compound 0.8 µM): 0.83
- relative viability (NCI-H1975; first compound 2.53 µM): 0.882
- relative viability (NCI-H1975; first compound 8 µM): 0.73
- relative viability (LU99A; first compound 0.08 µM): 0.497
- relative viability (LU99A; first compound 0.253 µM): 0.521
- relative viability (LU99A; first compound 0.8 µM): 0.548
- relative viability (LU99A; first compound 2.53 µM): 0.612
- relative viability (LU99A; first compound 8 µM): 0.61
- relative viability (NCI-H647; first compound 0.08 µM): 1.03
- relative viability (NCI-H647; first compound 0.253 µM): 1.04
- relative viability (NCI-H647; first compound 0.8 µM): 0.988
- relative viability (NCI-H647; first compound 2.53 µM): 0.919
- relative viability (NCI-H647; first compound 8 µM): 0.544
- relative viability (NCI-H838; first compound 0.08 µM): 0.855
- relative viability (NCI-H838; first compound 0.253 µM): 0.808
- relative viability (NCI-H838; first compound 0.8 µM): 0.786
- relative viability (NCI-H838; first compound 2.53 µM): 0.774
- relative viability (NCI-H838; first compound 8 µM): 0.955
- relative viability (LC-2-ad; first compound 0.08 µM): 0.474
- relative viability (LC-2-ad; first compound 0.253 µM): 0.441
- relative viability (LC-2-ad; first compound 0.8 µM): 0.403
- relative viability (LC-2-ad; first compound 2.53 µM): 0.466
- relative viability (LC-2-ad; first compound 8 µM): 0.479
- relative viability (HCC-366; first compound 0.08 µM): 0.574
- relative viability (HCC-366; first compound 0.253 µM): 0.455
- relative viability (HCC-366; first compound 0.8 µM): 0.448
- relative viability (HCC-366; first compound 2.53 µM): 0.503
- relative viability (HCC-366; first compound 8 µM): 0.525
- relative viability (NCI-H1944; first compound 0.08 µM): 0.992
- relative viability (NCI-H1944; first compound 0.253 µM): 1.03
- relative viability (NCI-H1944; first compound 0.8 µM): 1.05
- relative viability (NCI-H1944; first compound 2.53 µM): 0.967
- relative viability (NCI-H1944; first compound 8 µM): 0.939
- relative viability (HCC-15; first compound 0.08 µM): 0.835
- relative viability (HCC-15; first compound 0.253 µM): 0.771
- relative viability (HCC-15; first compound 0.8 µM): 0.724
- relative viability (HCC-15; first compound 2.53 µM): 0.761
- relative viability (HCC-15; first compound 8 µM): 0.797
- relative viability (PC-3 [JPC-3]; first compound 0.253 µM): 0.878
- relative viability (PC-3 [JPC-3]; first compound 0.8 µM): 0.91
- relative viability (PC-3 [JPC-3]; first compound 2.53 µM): 0.915
